The values that follow come from publication PMC5653977 (EMBO Molecular Medicine, 2017).

Structures can show the parent of a compound that is named as a salt.

The first assay has as its system NRG1-ERBB4 signaling. In words: Nrg1-ERBB4-PIK3R1 split TEV co-culture compound screen of the NIH Clinical Collection. In kind it is cell-based, human. The following applies: NIH Clinical Collection NCC-003 raw data; compounds ranked by Z-score; 'flagged' given instead of a Z-score. The source says:
For our HTS‐compatible split TEV assay approach, human full‐length ERBB4‐Cyt1 was fused to the NTEV fragment, a TEV protease cleavage site (tevS) and the artificial co‐transcriptional activator Gal4‐VP16 (ERBB4‐NTEV‐tevS‐GV); human PIK3R1 was fused to the CTEV fragment (PIK3R1‐CTEV) (Fig 1A). Upon ERBB4 activation, PIK3R1 is recruited to the receptor resulting in a reconstituted protease activity that cleaves off GV. In turn, released GV translocates to the nucleus and binds to upstream activating sequences (UAS) to activate the transcription of a firefly luciferase reporter gene (Fig 1A). A constitutively expressed Renilla luciferase driven under the control of the human thymidine kinase (TK) promoter was used as control to address off‐target effects related to toxicity.
For small molecule screening, the NIH‐NCC Clinical Collection library (sets NCC‐003 and NCC‐201) was used containing 727 small molecules that are FDA‐approved and have a history in clinical applications (www.nihclinicalcollection.com). A Hamilton Labstar robot connected to 37 and 4°C incubators for cell incubation and compound storage and application (Cytomat automated incubator, ThermoScientific) and to a luciferase reader (Berthold Technologies) was used to automatically perform the screening. […] Each batch was screened three times.
For one 96‐well plate, 4 × 10^6 PC12 cells were harvested and diluted in 5 ml assay medium (phenol red‐free DMEM (low glucose, Life Technologies), 10% FCS, 5% HS, no antibiotics). The split TEV assay plasmids (2 μg pcDNA3_ERBB4‐NTEV‐tevS‐GV‐2xHA, 2 μg pTag4C_PIK3R1‐CTEV‐2xHA, 2 μg p5xUAS_firefly luciferase, 2 μg pTK_Renilla luciferase, and 0.5 μg pECFP‐C1 for examining transfection efficiency) were diluted in 2.5 ml Opti‐MEM (Life Technologies) and vortexed. In parallel, 20 μl of the transfection reagent Lipofectamine 2000 was diluted in 2.5 ml Opti‐MEM and vortexed.
For plating of one 96‐well plate, 10 ml suspension, containing the 4 × 10^6 in solution‐transfected cells, was placed in the bubble paddle reservoir of the Hamilton Cellstar robot. 100 μl was seeded per 96‐well using the 96‐tip pipetting head. The homogeneity of the cell suspension was guaranteed over time by mild stirring using the paddling device inside the reservoir. For five plates each, 50 ml of additional cell suspension was used to allow for losses of inaccessible volume.
The cells were allowed to express the plasmids for 24 h before compounds were added. Proper expression and transfection efficiency were verified by ECFP expression on a clear control plate. The compounds were applied in a final concentration of 10 μM using DMSO as diluent. […] Thirty minutes later, 10,000 Nrg1‐expressing PC12 cells in 100 μl assay medium were seeded on top. 24 h after addition of the compounds, the cells were lysed using 40 μl Passive Lysis buffer (Promega) and subjected to a Dual Luciferase Assay (Promega) according to the manufacturer's instructions. The data were analyzed in R Bioconductor using the package cellHTS2 (http://www.bioconductor.org/packages/devel/bioc/html/cellHTS2.html), assessed using the z‐score, and visualized using the program Mondrian (http://stats.math.uni-augsburg.de/mondrian/).
As to `NC(N)=Nc1nc(CSCCC(N)=NS(N)(=O)=O)cs1` [FAMOTIDINE], the Z-SCORE is -1.65.
The same measure, in the same setting: with `[H]/N=C(/NCCCCC)N/N=C/c1c[nH]c2ccc(OC)cc12` [TEGASEROD MALEATE] the entry was “flagged”.

The assay is the same for the next values; noted with them: compound screen of the NIH Clinical Collection, sheet raw data NCC-003; compounds ranked by Z-score.
`C[C@H]1C[C@H]2[C@@H]3CCC4=CC(=O)C=C[C@]4(C)[C@@]3(Cl)[C@@H](O)C[C@]2(C)[C@@]1(O)C(=O)CO` [Beclomethasone] gave a Z-SCORE of -0.67.
Regarding `CC(C)c1ccc2oc3nc(N)c(C(=O)O)cc3c(=O)c2c1` [Amlexanox, reference compound], the Z-SCORE turned out to be 4.7.
Same read-out and setting: with `CN(C)CC[C@@H](c1ccc(Br)cc1)c1ccccn1` [DEXBROMPHENIRAMINE MALEATE] the figure was -0.74; with `C[C@]12CC[C@H](O)CC1=CC[C@@H]1[C@@H]2CC[C@]2(C)C(=O)CC[C@@H]12` [DEHYDROEPIANDROSTERONE], 0.4; with `CCCCc1nc(Cl)c(CO)n1Cc1ccc(-c2ccccc2-c2nn[nH]n2)cc1` [LOSARTAN Potassium], -0.12.
The same measure, in the same setting: with `CCCc1nc2c(C)cc(-c3nc4ccccc4n3C)cc2n1Cc1ccc(-c2ccccc2C(=O)O)cc1` the figure was 0.38; with `OCCN1C[C@H](O)[C@@H](O)[C@H](O)[C@H]1CO` [MIGLITOL], -0.33.
In turn, `Cc1[nH]cnc1CN1CCc2c(c3ccccc3n2C)C1=O` [ALOSETRON HCl] showed a Z-SCORE of 0.99.
The same measure, in the same setting: next, `CN1C(=O)CN=C(c2ccccc2)c2cc([N+](=O)[O-])ccc21` [Nimetazepam]: 0.16; `NC(=O)c1cccnc1` [NICOTINAMIDE]: 2.52; `C#C[C@]1(O)CC[C@H]2[C@@H]3CCc4cc(OC)ccc4[C@H]3CC[C@@]21C` [MESTRANOL]: -0.21.
The same measure, in the same setting: next, `CC(=O)OCC(=O)NCCCOc1cccc(CN2CCCCC2)c1` [ROXATIDINE ACETATE HCl]: -0.59; `CNC1CC(c2ccc(Cl)c(Cl)c2)c2ccccc21` (stereo not shown) [Indatraline]: 0.28; `CC(C)c1ccc2c(c1)c(SC(C)(C)C)c(CC(C)(C)C(=O)O)n2Cc1ccc(Cl)cc1`: 0.23.
Still for that read-out and setting: with `COC(=O)N1CCN(C(=O)Cc2ccc(Cl)c(Cl)c2)C(CN2CCCC2)C1` (stereo not shown) [GR 89696] the figure was 1.46; with `CN1CCC(=C2c3ccccc3CCc3sccc32)CC1` [Pizotyline], -0.22.

The same assay, now with this note: compounds at 10 μM, 24 h; PC12 split TEV assay cells co-cultured with Nrg1-expressing PC12 cells; analysed with cellHTS2.
`CC1(C)O[C@@H]2C[C@H]3[C@@H]4CCC5=CC(=O)C=C[C@]5(C)[C@@]4(F)[C@@H](O)C[C@]3(C)[C@]2(C(=O)CO)O1` [TRIAMCINOLONE ACETONIDE, reference compound] came in with a Z-SCORE of -1.51.
Compound `CC(C)c1ccc2oc3nc(N)c(C(=O)O)cc3c(=O)c2c1` [Amlexanox, reference compound] registered a Z-SCORE of 4.7.
The same measure, in the same setting: next, `O=S(=O)(O)CCS` [Mesna, reference compound]: 0.04.
Still for that read-out and setting: with `CN(C)CCCC1(c2ccc(F)cc2)OCc2cc(C#N)ccc21` (stereo not shown) [Citalopram, reference compound] the figure was -1.5; with `CC(=O)OCC(=O)[C@@]1(O)CC[C@H]2[C@@H]3CCC4=CC(=O)C=C[C@]4(C)[C@H]3[C@@H](O)C[C@@]21C` [PREDNISOLONE ACETATE, reference compound], -0.58; with `Nc1nc(F)nc2c1ncn2[C@@H]1O[C@H](CO)[C@@H](O)[C@@H]1O` [FLUDARABINE, reference compound], 0.7.
The same measure, in the same setting: with `C[C@](N)(Cc1ccc(O)c(O)c1)C(=O)O` [Methyldopa, reference compound] the figure was 0.63; with `CN1CCN(C2=Nc3cc(Cl)ccc3Nc3ccccc32)CC1` [Clozapine, reference compound], -0.31; with `O=c1[nH]c(=O)n([C@H]2C[C@H](O)[C@@H](CO)O2)cc1F` [Floxuridine, reference compound], -0.39.
`C[C@]12CCC(=O)C=C1CC[C@@H]1[C@@H]2[C@@H](O)C[C@@]2(C)[C@H]1CC[C@]2(O)C(=O)CO` [HYDROCORTISONE, reference compound] registered a Z-SCORE of -1.61.
